According to article PMC9237828, “Chemically Tuning Resveratrol for the Effective Killing of Gram-Positive Pathogens” (Journal of Natural Products, 2022):
Converted amounts (≈) assume the structure as drawn. Where two headings read alike, the source gives them in different places. Non-standard residues stand in square brackets, D forms with d. Residues, ends and D or L forms follow the SMILES beside them. Orn = NCCC[C@H](N)C(=O)O

Key:
[1] = test system: C. perfringens CECT376; experiment: microbe, parasite or virus in culture; format: cell-based; details: for MIC: Clostridium perfringens, CECT376, 24 h, read-out: Minimal Inhibition Concentration (MIC) C. perfringens CECT376
[2] = test system: MRC5 cells
[3] = test system: C. tetani CECT4629; experiment: microbe, parasite or virus in culture; format: cell-based; details: for Minimal Inhibition Concentration (MIC) C. tetani CECT4629: Table 1, 128 to 2 μM, RCM medium, anaerobic, 24 h; for MIC: Clostridium tetani, CECT4629, 24 h, read-out: Minimal Inhibition Concentration (MIC) C. tetani CECT4629
[4] = test system: C. difficile CECT531; experiment: microbe, parasite or virus in culture; format: cell-based, Clostridioides difficile; details: for MIC: Clostridioides difficile, CECT531, 24 h, read-out: Minimal Inhibition Concentration (MIC) C. difficile CECT531
[5] = test system: C. beijerinckii B504; experiment: MIC test, anaerobes; format: cell-based; details: for Minimal Inhibition Concentration (MIC) C. beijerinckii B504: Table 1, 128 to 2 μM, RCM medium, anaerobic, 24 h; for MIC: Clostridium beijerinckii, B504, 24 h, read-out: Minimal Inhibition Concentration (MIC) C. beijerinckii B504
Protocol: (§1) The resveratrol derivatives were serially diluted in cMHB (BD Difco) in 96-well microplates. Plates were then inoculated with the indicator bacteria at a final concentration of 5 × 10^5 CFU/mL and incubated at 37 °C for 20 h. In the case of the anaerobic bacteria (Clostridium and Clostridioides), the test was performed following the recommendation of CLSI for anaerobes[77] but using RCM medium instead of cMHB. The cultures were cultivated inside an anaerobic chamber at 37 °C for 24 h. All the tests were performed in triplicate.

[6] = test system: C. ihumii AP5; experiment: MIC test, anaerobes; format: cell-based; details: 24 h, read-out: Minimal Inhibition Concentration (MIC) C. ihumii AP5
Protocol: as §1

[7] = test system: E. faecalis LMG16216; experiment: microbe, parasite or virus in culture; format: cell-based, Enterococcus faecalis; details: for MIC: Enterococcus faecalis, LMG16216, 20 h, read-out: Minimal Inhibition Concentration (MIC) E. faecalis LMG16216
[8] = test system: E. faecalis V583; experiment: microbe, parasite or virus in culture; format: cell-based, Enterococcus faecalis; details: for MIC: Enterococcus faecalis, V583, 20 h, read-out: Minimal Inhibition Concentration (MIC) E. faecalis V583
[9] = test system: C. botulinum CECT551; experiment: microbe, parasite or virus in culture; format: cell-based; details: for Minimal Inhibition Concentration (MIC) C. botulinum CECT551: Table 1, 128 to 2 μM, RCM medium, anaerobic, 24 h; for MIC: Clostridium botulinum, CECT551, 24 h, read-out: Minimal Inhibition Concentration (MIC) C. botulinum CECT551
[10] = test system: S.aureus LMG10147; experiment: microbe, parasite or virus in culture; format: cell-based, Staphylococcus aureus; details: for MIC: Staphylococcus aureus, LMG10147, 20 h, read-out: Minimal Inhibition Concentration (MIC) S.aureus LMG10147
[11] = test system: E. faecium LMG16003; experiment: microbe, parasite or virus in culture; format: cell-based; details: for MIC: Enterococcus faecium, LMG16003, 20 h, read-out: Minimal Inhibition Concentration (MIC) E. faecium LMG16003
[12] = test system: S.aureus LMG8224; experiment: microbe, parasite or virus in culture; format: cell-based, Staphylococcus aureus; details: for MIC: Staphylococcus aureus, LMG8224, 20 h, read-out: Minimal Inhibition Concentration (MIC) S.aureus LMG8224
[13] = test system: B. cereus ATCC14579; experiment: microbe, parasite or virus in culture; format: cell-based, Bacillus cereus; details: for MIC: Bacillus cereus, ATCC14579, 20 h, read-out: Minimal Inhibition Concentration (MIC) B. cereus ATCC14579
[14] = test system: B. cereus ATCC10987; experiment: microbe, parasite or virus in culture; format: cell-based, Bacillus cereus; details: for MIC: Bacillus cereus, ATCC10987, 20 h, read-out: Minimal Inhibition Concentration (MIC) B. cereus ATCC10987
[15] = test system: E. faecalis LMG08222; experiment: microbe, parasite or virus in culture; format: cell-based, Enterococcus faecalis; details: for MIC: Enterococcus faecalis, LMG08222, 20 h, read-out: Minimal Inhibition Concentration (MIC) E. faecalis LMG08222
[16] = test system: S.aureus LMG15975; experiment: microbe, parasite or virus in culture; format: cell-based, Staphylococcus aureus; details: for MIC: Staphylococcus aureus, LMG15975, 20 h, read-out: Minimal Inhibition Concentration (MIC) S.aureus LMG15975
[17] = test system: E. faecium LMG11423; experiment: microbe, parasite or virus in culture; format: cell-based; details: for MIC: Enterococcus faecium, LMG11423, 20 h, read-out: Minimal Inhibition Concentration (MIC) E. faecium LMG11423
[18] = test system: B. cereus ATCC 10987, E. faecalis V583, E. faecium LMG 16003, and S. aureus LMG 8224; format: cell-based; details: 2-fold the MIC, 24 h, cMHB
[19] = test system: E. coli LMG8224; experiment: Outer membrane permeabilization test (MIC with or without L-11 peptide); details: for MIC (μM) L-11 + 4 μM: presence of 4 μM L-11 outer-membrane-perturbing peptide; for MIC: Escherichia coli, LMG8224, read-out: MIC (μM) L-11 + 0 μM
[20] = test system: B. cereus ATCC10987; experiment: Effect of the compounds on actively growing bacteria (lysis, OD600); format: cell-based, Bacillus cereus; details: for lysis of actively growing cells: 2×, 1×, and 0.5× the MIC added at mid exponential phase
[21] = test system: E. faecium LMG16003 and S. aureus LMG82224; experiment: Combination with 24 traditional antibiotics, overall outcome; format: cell-based
[22] = test system: B. cereus ATCC10987; experiment: Intracellular ATP level quantification (BacTiter-Glo); details: 32 μM of the compounds (100 μM for CCCP), 30, 60, and 120 min, 37 °C
[23] = in vitro; details: human
[24] = test system: B. cereus ATCC10987 respiratory chain; experiment: Activity of the respiratory chain (resazurin reduction); format: cell-based, Bacillus cereus; details: dose-related, 125 min
Protocol: The effect of the resveratrol derivatives on the B. cereus ATCC10987 respiratory chain was measured by the reduction of resazurin to the fluorescent resorufin. The bacteria were cultured in LB medium at 37 °C to an OD600 of 1. Then, the cells were washed three times in cMHB and resuspended in this medium at a final OD600 of 0.2. Resazurin at 100 μg/mL was added to the cells that were distributed in a 96-well plate. […] No treated cells and just MHB medium with resazurin were used as negative controls. All the tests were performed in triplicate.

[25] = test system: B. cereus ATCC10987; experiment: Membrane potential assay DiSC3(5); details: 2×, 1×, and 0.5× the MIC
[26] = Table 1, 128 to 2 μM, RCM medium, anaerobic

3-tert-Butyldimethylsilyl resveratrol [compound 16]
Minimal Inhibition Concentration (MIC) C. perfringens CECT376 [1]: 32 µM
IC50 [2]: 2.7 ± 0.3 µM
Minimal Inhibition Concentration (MIC) C. tetani CECT4629 [3]: 6.6 ± 1.3 µM
Minimal Inhibition Concentration (MIC) C. difficile CECT531 [4]: 26.6 ± 5.3 µM
Minimal Inhibition Concentration (MIC) C. beijerinckii B504 [5]: 26.6 ± 5.3 µM
MIC [6, 26]: 32 µM
Minimal Inhibition Concentration (MIC) E. faecalis LMG16216 [7]: 16 ± 0 µM
Minimal Inhibition Concentration (MIC) E. faecalis V583 [8]: 16 ± 0 µM
Minimal Inhibition Concentration (MIC) C. botulinum CECT551 [9]: 16 µM
Minimal Inhibition Concentration (MIC) S.aureus LMG10147 [10]: 16 ± 0 µM
Minimal Inhibition Concentration (MIC) E. faecium LMG16003 [11]: 16 ± 0 µM
Minimal Inhibition Concentration (MIC) S.aureus LMG8224 [12]: 16 ± 0 µM
Minimal Inhibition Concentration (MIC) B. cereus ATCC14579 [13]: 16 ± 0 µM
Minimal Inhibition Concentration (MIC) B. cereus ATCC10987 [14]: 16 ± 0 µM
Minimal Inhibition Concentration (MIC) E. faecalis LMG08222 [15]: 8 ± 0 µM
Minimal Inhibition Concentration (MIC) S.aureus LMG15975 [16]: 16 ± 0 µM
Minimal Inhibition Concentration (MIC) E. faecium LMG11423 [17]: 16 ± 0 µM

3-triethylsilyl resveratrol [compound 20]
IC50 [2]: 21.3 ± 5.9 µM

4′-tert-butyldimethylsilyl resveratrol [compound 17]
Minimal Inhibition Concentration (MIC) C. perfringens CECT376 [1]: 13.3 ± 2.6 µM
IC50 [2]: 15.5 ± 1.3 µM
Minimal Inhibition Concentration (MIC) C. tetani CECT4629 [3]: 5.3 ± 1.3 µM
bactericidal/bacteriostatic effect [18]: bactericidal
Minimal Inhibition Concentration (MIC) C. difficile CECT531 [4]: 21.3 ± 5.3 µM
Minimal Inhibition Concentration (MIC) C. beijerinckii B504 [5]: 10.6 ± 2.6 µM
MIC [6, 26]: 16 µM
Minimal Inhibition Concentration (MIC) E. faecalis LMG16216 [7]: 8 ± 0 µM
Minimal Inhibition Concentration (MIC) E. faecalis V583 [8]: 8 ± 0 µM
Minimal Inhibition Concentration (MIC) C. botulinum CECT551 [9]: 13.3 ± 2.6 µM
Minimal Inhibition Concentration (MIC) S.aureus LMG10147 [10]: 8 ± 0 µM
Minimal Inhibition Concentration (MIC) E. faecium LMG16003 [11]: 8 ± 0 µM
MIC (μM) L-11 + 0 μM ([19]; absence of L-11 outer-membrane-perturbing peptide): >128 µM
MIC (μM) L-11 + 4 μM [19]: 13.3 ± 2.6 µM
Minimal Inhibition Concentration (MIC) S.aureus LMG8224 [12]: 8 ± 0 µM
Minimal Inhibition Concentration (MIC) B. cereus ATCC14579 [13]: 4 ± 0 µM
Minimal Inhibition Concentration (MIC) B. cereus ATCC10987 [14]: 8 ± 0 µM
Minimal Inhibition Concentration (MIC) E. faecalis LMG08222 [15]: 6.6 ± 1.3 µM
Minimal Inhibition Concentration (MIC) S.aureus LMG15975 [16]: 8 ± 0 µM
Minimal Inhibition Concentration (MIC) E. faecium LMG11423 [17]: 8 ± 0 µM
effect on actively growing cells ([20]; at 2× the MIC): bactericidal
effect on actively growing cells ([20]; at the MIC concentration): bacteriostatic
combined effect with traditional antibiotics [21]: an additive effect was mainly observed

N#CC(C#N)=NNc1cccc(Cl)c1 [CCCP, carbonyl cyanide m-chlorophenyl hydrazone]
intracellular ATP levels [22]: a time reduction of these levels was observed

CC[Si](CC)(CC)Oc1ccc(/C=C/c2cc(O)cc(O)c2)cc1 [compound 31]
IC50 [23]: 32.1 ± 0.9 µM

CC(C)[Si](Oc1cc(O)cc(/C=C/c2ccc(O)cc2)c1)(C(C)C)C(C)C [compound 32]
MIC [1]: 16 µM (≈ 6.15 µg/mL)
MIC [3]: 5.3 ± 1.3 µM (≈ 2.04 µg/mL)
IC50 [23]: 1.8 ± 0.1 µM
bactericidal/bacteriostatic effect [18]: bactericidal
MIC [4]: 16 µM (≈ 6.15 µg/mL)
MIC [5]: 10.7 ± 2.6 µM (≈ 4.12 µg/mL)
MIC [6]: 16 µM (≈ 6.15 µg/mL)
MIC [7]: 4 µM (≈ 1.54 µg/mL)
MIC [8]: 8 µM (≈ 3.08 µg/mL)
MIC [9]: 8 µM (≈ 3.08 µg/mL)
effect on the respiratory chain (reduction of resazurin) [24]: comparable to or even higher than that of the proton ionophore decoupler of the electron transport chain CCCP
MIC [10]: 8 µM (≈ 3.08 µg/mL)
MIC [11]: 4 µM (≈ 1.54 µg/mL)
MIC [19]: > 128 µM
MIC (μM) L-11 + 4 μM [19]: 8 ± 0 µM
MIC [12]: 8 µM (≈ 3.08 µg/mL)
MIC [13]: 8 µM (≈ 3.08 µg/mL)
intracellular ATP levels [22]: reduced dramatically the ATP levels
MIC [14]: 8 µM (≈ 3.08 µg/mL)
MIC [15]: 4 µM (≈ 1.54 µg/mL)
MIC [16]: 8 µM (≈ 3.08 µg/mL)
MIC [17]: 4 µM (≈ 1.54 µg/mL)
lysis of actively growing cells [20]: most effective derivatives lysing the cells

CC(C)[Si](Oc1ccc(/C=C/c2cc(O)cc(O)c2)cc1)(C(C)C)C(C)C [compound 33]
MIC [1]: 26.6 ± 5.3 µM (≈ 10.2 µg/mL)
MIC [3]: 6.7 ± 1.3 µM (≈ 2.58 µg/mL)
IC50 [23]: 2.8 ± 0.2 µM
bactericidal/bacteriostatic effect [18]: bactericidal
MIC [4]: 16 µM (≈ 6.15 µg/mL)
MIC [5]: 21.3 ± 5.3 µM (≈ 8.19 µg/mL)
MIC [6]: 13.3 ± 2.6 µM (≈ 5.12 µg/mL)
MIC [7]: 8 µM (≈ 3.08 µg/mL)
MIC [8]: 21.3 ± 5.3 µM (≈ 8.19 µg/mL)
MIC [9]: 10.7 ± 2.6 µM (≈ 4.12 µg/mL)
MIC [10]: 128 µM (≈ 49.2 µg/mL)
MIC [11]: 5.3 ± 1.3 µM (≈ 2.04 µg/mL)
MIC [19]: > 128 µM
MIC (μM) L-11 + 4 μM [19]: 21.3 ± 5.3 µM
MIC [12]: 128 µM (≈ 49.2 µg/mL)
MIC [13]: 26.6 ± 5.3 µM (≈ 10.2 µg/mL)
MIC [14]: 32 µM (≈ 12.3 µg/mL)
MIC [15]: 8 µM (≈ 3.08 µg/mL)
MIC [16]: 128 µM (≈ 49.2 µg/mL)
MIC [17]: 16 µM (≈ 6.15 µg/mL)
lysis of actively growing cells [20]: most effective derivatives lysing the cells

CC(C)C[C@@H]1NC(=O)[C@H](CCCN)NC(=O)[C@H](C(C)C)NC(=O)[C@@H]2CCCN2C(=O)[C@@H](Cc2ccccc2)NC(=O)[C@H](CC(C)C)NC(=O)[C@H](CCCN)NC(=O)[C@H](C(C)C)NC(=O)[C@@H]2CCCN2C(=O)[C@@H](Cc2ccccc2)NC1=O [gramicidin S, Gramicidin S] (cyclo(V[Orn]L[dF]PV[Orn]L[dF]P))
membrane potential change (DiSC3(5)) [25]: induced a strong membrane depolarization
